{"source": "patent US20250041437A1", "about": "“HUMANIZED MUC1 ANTIBODY AND ANTIBODY DRUG CONJUGATE” (Sun Pharma Advanced Research Company Limited, priority 2023, published 2025)", "key": {"SKOV3 derived xenograft": {"test_system": "SKOV3 derived xenograft", "conditions": "mouse, in vivo"}, "[1]": {"test_system": "BxPC3 pancreatic carcinoma cells", "test": "Growth inhibition of human cancer cell lines, BxPC3", "conditions": "read-out: MMAE IC50; BxPC3, free MMAE"}, "[2]": {"test_system": "T47D breast carcinoma cells", "test": "Growth inhibition of human cancer cell lines, T47D", "type": "cell-based", "conditions": "free MMAE"}, "[3]": {"test_system": "COLO-357 pancreatic carcinoma cells", "test": "Growth inhibition of human cancer cell lines, COLO-357", "conditions": "read-out: MMAE IC50; COLO-357, free MMAE"}, "MCF7 derived xenograft": {"test_system": "MCF7 derived xenograft", "conditions": "mouse, in vivo"}, "[4]": {"test": "Single dose pharmacokinetics, COLO357 tumor bearing mouse, IV", "type": "in vivo", "procedure": "The objective of this study was to evaluate serum, tumor and liver pharmacokinetics of TAB, CAB and uMMAE following 3 mg/kg single IV administration of M5LM4-ADC and pharmacokinetics of MMAE following 0.06 mg/kg single IV administration of MMAE alone in a COLO357 tumor bearing mouse model.\nThe blood samples were collected from the mouse at 0.083, 0.5, 1, 2, 4, 8, 24, 48, 72, 96, 168 and 336 hours post-dose (n=3 mice/time point; sparse sampling design) through retro-orbital plexuses and serum was immediately harvested. At 24, 48, 72, 96, 168 and 336 hour time-points, the tumor and liver were collected. Analysis of total antibody (TAB) and conjugated antibody (CAB) was done by a fit for purpose ELISA based method and analysis of free payload (MMAE) was done by a fit for purpose LC-MS/MS based method. Pharmacokinetic analysis was performed by the non-compartmental analysis tool of Phoenix WinNonlin® software."}, "[5]": {"conditions": "MMAE, MMAE 0.06 mg/kg IV, liver"}, "[6]": {"conditions": "MMAE, MMAE 0.06 mg/kg IV, serum"}, "[7]": {"conditions": "MMAE, MMAE 0.06 mg/kg IV, tumor"}, "[8]": {"conditions": "single IV MMAE, COLO357 tumor bearing mice"}}, "note": "Where a SMILES comes first, the peptide text is derived from it. [ ]: non-standard residue; d: D form. The star is where a group is joined. Dolaproine = CO[C@@H]([C@@H]1CCCN1)[C@@H](C)C(=O)O; Dil = CC[C@H](C)[C@H](NC)[C@@H](CC(=O)O)OC; X1 = C[C@@H](N*)[C@@H](O)c1ccccc1; NMeV = CN[C@H](C(=O)O)C(C)C", "data": [{"smiles": "CC[C@H](C)[C@@H]([C@@H](CC(=O)N1CCC[C@H]1[C@H](OC)[C@@H](C)C(=O)N[C@H](C)[C@@H](O)c1ccccc1)OC)N(C)C(=O)[C@@H](NC(=O)[C@@H](NC)C(C)C)C(C)C", "note": "[Free MMAE, monomethyl auristatin E, reference compound] (H-[NMeV]V[Dil][Dolaproine]-X1)", "values": [{"measurement": "mortality", "setting": "SKOV3 derived xenograft", "result": "3 of 8"}, {"measurement": "tumor growth inhibition (TGI)", "setting": "SKOV3 derived xenograft", "result": "106±10", "unit": "%"}, {"measurement": "IC50", "setting": "[1]", "result": 20, "unit": "pM"}, {"measurement": "IC50", "setting": "[2]", "result": 70, "unit": "pM"}, {"measurement": "IC50", "setting": "[3]", "result": 160, "unit": "pM"}, {"measurement": "mortality", "setting": "MCF7 derived xenograft", "result": "3 of 8"}, {"measurement": "AUC0-336", "setting": "[4]; [5]", "result": 0.19, "unit": "µM·h"}, {"measurement": "Cmax", "setting": "[4]; [5]", "result": 1.5, "unit": "nM"}, {"measurement": "T1/2", "setting": "[4]; [5]", "result": 182, "unit": "h"}, {"measurement": "AUC0-24", "setting": "[4]; [6]", "result": 0.018, "unit": "µM·h"}, {"measurement": "AUC0-336", "setting": "[4]; [6]", "result": 0.021, "unit": "µM·h"}, {"measurement": "AUCINF", "setting": "[4]; [6]", "result": 0.021, "unit": "µM·h"}, {"measurement": "CL", "setting": "[4]; [6]", "result": 64, "unit": "mL/min/kg"}, {"measurement": "Cmax", "setting": "[4]; [6]", "result": 8, "unit": "nM"}, {"measurement": "T1/2", "setting": "[4]; [6]", "result": 5, "unit": "h"}, {"measurement": "Tmax", "setting": "[4]; [6]", "result": 4.8, "unit": "min"}, {"measurement": "Vss", "setting": "[4]; [6]", "result": 34, "unit": "L/kg"}, {"measurement": "AUC0-336", "setting": "[4]; [7]", "result": 1.391, "unit": "µM·h"}, {"measurement": "AUC ratio (Kp)", "setting": "[4]; [7]", "result": 66}, {"measurement": "Cmax", "setting": "[4]; [7]", "result": 11, "unit": "nM"}, {"measurement": "T1/2", "setting": "[4]; [7]", "result": 154, "unit": "h"}, {"measurement": "tumor exposure higher than in serum", "setting": "[4]; [8]", "result": 66, "unit": "fold"}, {"measurement": "tumor exposure higher than in the liver", "setting": "[4]; [8]", "result": 7, "unit": "fold"}]}]}
